Experiments:
Test in all cases: GeneChip gene expression in renal glomerulus
Type in all cases: in vivo, mouse
C1q related factor = details: probe 1422777_at, 0.02% in diet, 12 weeks
Protocol: (§1) Type II diabetic female db/db mice and non-diabetic db/m were purchased from Clea Japan, Inc. Mice were bred under the conditions with a 12 hours light-dark cycle at a temperature of 21° C. to 25° C. For acclimation, mice were fed CE-2 (Clea Japan, Inc.) with free access to water for one week. The mice were divided into three groups each consisting of 8 mice (non-diabetic db/m, diabetic db/db, and astaxanthin-administered db/db) and each group was bred with feed ad libitum. Mice in astaxanthin-administered group were fed a diet in which 0.02% astaxanthin in terms of free astaxanthin was compounded with CE-2. Each group was bred for 12 weeks, and body weight, blood glucose levels, 8-OHdG levels in urine, albumin levels in urine, and kidney histopathology, were measured. Astaxanthin used here was AstaReal (registered trademark, Fuji Chemical Industry Co., Ltd.) 50F, which is oil composed of astaxanthin fatty acid ester and triglycerides and contains 5% astaxanthin in terms of free astaxanthin.
(§2) After the period of test breeding, kidney was removed and frozen at −80° C. Using an LM200 system (Olympus Corporation), the renal glomerulus was cut from kidney of mice while keeping low temperature. tRNA of renal glomerulus was extracted using tRNA extraction regent “Isogen” (produced by Nippon Gene Co., Ltd.), and then preparation of cRNA and hybridization were performed according to the Affymetrix GeneChip Eukaryotic Small Sample Target Labeling Assay Ver. II.
(§3) (1) Synthesis of first strand cDNA: 1 μL of total RNA solution and 1 of 5 μM T7-Oligo(dT) primer were mixed, heated at 70° C. for 6 minutes, and then cooled at 4° C. for 2 minutes. 3 μL of RT_Premix_1 (1.5 μL DEPC-treated water, 4 μL 5× First strand Buffer, 2 μL DTT (0.1 M), 1.5 μL dNTP Mix (10 mM), 1 μL RNase inhibitor (40 U/μL), and 2 μL Super-Script II (200 U/μL)) was added and reverse transcribed at 42° C. for 1 hour. The sample was heated at 70° C. for 10 minutes to inactivate Super Script II, and then cooled to 4° C. (2) Synthesis of second strand cDNA: 32.5 μl of SS_Premix_1 (91 μL DEPC-treated water, 30 μL 5× Second Strand Buffer, 3 μL dNTP (10 mM), 1 μL E. coli DNA ligase (10 U/μL); 4 μL E. coli DNA polymerase (10 U/μL), and 1 μL RNase H (2 U/μL)) was added to the first strand cDNA solution and allowed to react for 2 hours at 16° C. (3) To the resulting cDNA, was added 1 μL T4 DNA polymerase (5 U/μl) and allowed to react for 10 minutes at 16° C., and purified by ethanol precipitation. (4) In vitro transcription: To the dried double-stranded cDNA pellet, was added 10 μL of reagents (4 μL DEPC-treated water, 4 μL premixed NTPs, 1 μL 10× reaction buffer, and 1 μL 10× enzyme mix), and allowed to react at 37° C. in a water bath for 6 hours. (5) First cycle cRNA was purified using the RNeasy Mini Kit in accordance with the protocol in the handbook (QIAGEN). (6) Subsequently, for the amplification and labeling, the cRNA sample was mixed with random primers (0.2 μg/μL), treated at 70° C. for 10 minutes, cooled on ice for 2 minutes, 5 μL of RT_Premix_2 (5× First Strand Buffer, DTT (0.1 M), dNTP mix (10 mM), RNase inhibitor (40 U/μL), and SuperScript II (200 U/μL) was added, and allowed to react at 42° C. for 1 hour. (7) Next, Second Sstrand cDNA synthesis was carried out by adding 5 μM T7-Oligo(dT) promoter treating at 70° C. for 6 minutes, cooling at 4° C., and adding 62 μL of SS_Premix_2 (43 μL it DEPC-treated water, 15 μL 5× Second Strand Buffer, 1.5 μL dNTP mix (10 mM), and 2 μL E. coli DNA polymerase (10 U/μL)). (8) To the resulting cDNA, was treated added 1 μL of T4 DNA polymerase (5 U/μL), allowed to react at 16° C. for 10 minutes, and purified by ethanol precipitation. […]

[1] = test system: procollagen, type IV, alpha 5; details: probe 1425476_at, 0.02% in diet, 12 weeks
Protocol: as §1, §2, §3

[2] = test system: collagen, type XXV, alpha 1; details: probe 1438655_a_at, 0.02% in diet, 12 weeks
Protocol: as §1, §2, §3

[3] = test system: C1q and tumor necrosis factor related protein 5; details: probe 1424762_at, 0.02% in diet, 12 weeks
Protocol: as §1, §2, §3

granulin = details: probe 1438629_x_at, 0.02% in diet, 12 weeks
Protocol: as §1, §2, §3

septin 7 = details: probe 1454610_at, 0.02% in diet, 12 weeks
Protocol: as §1, §2, §3

[4] = test system: Blymphoma Mo-MLV insertion region 1; details: probe 1448733_at, 0.02% in diet, 12 weeks
Protocol: as §1, §2, §3

catalase = details: probe 1416430_at, 0.02% in diet, 12 weeks
Protocol: as §1, §2, §3

fibrosin 1 = details: probe 1433816_at, 0.02% in diet, 12 weeks
Protocol: as §1, §2, §3

caspase 7 = details: probe 1434099_at, 0.02% in diet, 12 weeks
Protocol: as §1, §2, §3

[5] = test system: macrophage scavenger receptor 1; details: probe 1448061_at, 0.02% in diet, 12 weeks
Protocol: as §1, §2, §3

[6] = test system: insulin like growth factor 2 receptor; details: probe 1424111_at, 0.02% in diet, 12 weeks
Protocol: as §1, §2, §3

secreted posphoprotein 1 = details: probe 1449254_at, 0.02% in diet, 12 weeks
Protocol: as §1, §2, §3

## CC1=C(/C=C/C(C)=C/C=C/C(C)=C/C=C/C=C(C)/C=C/C=C(C)/C=C/C2=C(C)C(=O)C(O)CC2(C)C)C(C)(C)CC(O)C1=O (stereo not drawn) [astaxanthin, 3,3′-dihydroxy-β,β-carotene-4,4′-dione]
C1q related factor
  gene expression intensity ratio db/db(Ax):db/db: 1.32
  gene expression intensity ratio db/db(Ax):db/m: 0.71
[1]
  gene expression intensity ratio db/db(Ax):db/db: 0.50
  gene expression intensity ratio db/db(Ax):db/m: 2.00
[2]
  gene expression intensity ratio db/db(Ax):db/db: 0.19
  gene expression intensity ratio db/db(Ax):db/m: 0.87
[3]
  gene expression intensity ratio db/db(Ax):db/db: 2.00
  gene expression intensity ratio db/db(Ax):db/m: 1.23
granulin
  gene expression relative ratio db/db(Ax):db/db: 0.19
  gene expression relative ratio db/db(Ax):db/m: 3.03
Septin 7
  gene expression relative ratio db/db(Ax):db/db: 0.76
  gene expression relative ratio db/db(Ax):db/m: 36.76
[4]
  gene expression relative ratio db/db(Ax):db/db: 0.76
  gene expression relative ratio db/db(Ax):db/m: 8.00
catalase
  gene expression relative ratio db/db(Ax):db/db: 0.33
  gene expression relative ratio db/db(Ax):db/m: 8.57
Fibrosin 1
  gene expression relative ratio db/db(Ax):db/db: 0.31
  gene expression relative ratio db/db(Ax):db/m: 8
Caspase 7
  gene expression relative ratio db/db(Ax):db/db: 0.87
  gene expression relative ratio db/db(Ax):db/m: 68.59
[5]
  gene expression intensity ratio db/db(Ax):db/db: 0.25
  gene expression intensity ratio db/db(Ax):db/m: 1.32
[6]
  gene expression intensity ratio db/db(Ax):db/db: 0.87
  gene expression intensity ratio db/db(Ax):db/m: 11.31
Secreted posphoprotein 1
  gene expression relative ratio db/db(Ax):db/db: 0.13
  gene expression relative ratio db/db(Ax):db/m: 0.66

From patent US10828269B2, “Reducing muscle atrophy by administering astaxanthin” (FUJI CHEMICAL INDUSTRIES CO., LTD., priority 2004, dated 2020)
